Measured values published in patent publication US9999619B2, “Piperidin-4-yl azetidine derivatives as JAK1 inhibitors” (Incyte Corporation, priority 2010, dated 2018).

Assays:
Format in all cases: biochemical
[1] = target: human JAK1 (a.a. 837-1142); assay: In vitro JAK kinase assay (HTRF, phosphorylation of a biotinylated peptide), JAK1; settings: ratio of JAK2 IC50 to JAK1 IC50, measured at 1 mM ATP
Method: (§1) Compounds herein were tested for inhibitory activity of JAK targets according to the following in vitro assay described in Park et al., Analytical Biochemistry 1999, 269, 94-104. The catalytic domains of human JAK1 (a.a. 837-1142), Jak2 (a.a. 828-1132) and Jak3 (a.a. 781-1124) with an N-terminal His tag were expressed using baculovirus in insect cells and purified. The catalytic activity of JAK1, JAK2 or JAK3 was assayed by measuring the phosphorylation of a biotinylated peptide. The phosphorylated peptide was detected by homogenous time resolved fluorescence (HTRF). […] Reactions were carried out at room temperature for 1 hr and then stopped with 20 μL 45 mM EDTA, 300 nM SA-APC, 6 nM Eu-Py20 in assay buffer (Perkin Elmer, Boston, Mass.). Binding to the Europium labeled antibody took place for 40 minutes and HTRF signal was measured on a Fusion plate reader (Perkin Elmer, Boston, Mass.).

[2] = target: human JAK1 (a.a. 837-1142) (Homo sapiens, UniProt P23458); assay: as above; settings: measured at 1 mM ATP
Method: as §1

Jak2 (a.a. 828-1132) = Jak2 (a.a. 828-1132) (Homo sapiens (Human), UniProt O60674); assay: In vitro JAK kinase assay (HTRF, phosphorylation of a biotinylated peptide), JAK2; settings: measured at 1 mM ATP
Chain of Jak2 (a.a. 828-1132) (O60674 828-1132): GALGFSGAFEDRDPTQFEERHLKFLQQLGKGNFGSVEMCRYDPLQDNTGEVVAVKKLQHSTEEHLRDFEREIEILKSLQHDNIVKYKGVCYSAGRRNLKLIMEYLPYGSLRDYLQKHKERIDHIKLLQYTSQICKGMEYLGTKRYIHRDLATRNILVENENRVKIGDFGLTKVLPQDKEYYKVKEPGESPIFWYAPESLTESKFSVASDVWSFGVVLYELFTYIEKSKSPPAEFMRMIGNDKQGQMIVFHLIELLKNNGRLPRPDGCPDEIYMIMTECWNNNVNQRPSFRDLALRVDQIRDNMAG
Method: as §1

| SMILES | IC50 Ratio JAK2/JAK1 [1] | IC50 [2] [nM] | IC50 (Jak2 (a.a. 828-1132)) [nM] |
| --- | --- | --- | --- |
| Cn1c(NC(=O)N2CCC(N3CC(CC#N)(n4cc(-c5ncnc6[nH]ccc56)cn4)C3)CC2)nc2ccccc21 [Example 194, 4-{3-(cyanomethyl)-3-[4-(7H-pyrrolo[2,3-d]pyrimidin-4-yl)-1H-pyrazol-1-yl]azetidin-1-yl}-N-(1-methyl-1H-benzimidazol-2-yl)piperidine-1-carboxamide] | 2.2 | ≤ 5 | ≤ 10 |
| N#CCC1(n2cc(-c3ncnc4[nH]ccc34)cn2)CN(C2CCN(C(=O)Nc3ncccc3F)CC2)C1 [Example 202, 4-{3-(cyanomethyl)-3-[4-(7H-pyrrolo[2,3-d]pyrimidin-4-yl)-1H-pyrazol-1-yl]azetidin-1-yl}-N-(3-fluoropyridin-2-yl)piperidine-1-carboxamide] | 6.4 | ≤ 5 | 10 to 50 |
| N#CCC1(n2cc(-c3ncnc4[nH]ccc34)cn2)CN(C2CCN(C(=O)c3cc(F)c(F)c(F)c3)CC2)C1 [Example 4, {3-[4-(7H-pyrrolo[2,3-d]pyrimidin-4-yl)-1H-pyrazol-1-yl]-1-[1-(3,4,5-trifluorobenzoyl)piperidin-4-yl]azetidin-3-yl}acetonitrile] | 10.2 | 5 to 20 | 50 to 100 |
| COc1ccc(F)c(C(=O)N2CCC(N3CC(CC#N)(n4cc(-c5ncnc6[nH]ccc56)cn4)C3)CC2)c1 [Example 27, {1-[1-(2-fluoro-5-methoxybenzoyl)piperidin-4-yl]-3-[4-(7H-pyrrolo[2,3-d]pyrimidin-4-yl)-1H-pyrazol-1-yl]azetidin-3-yl}acetonitrile] | 5.1 | 5 to 20 | 50 to 100 |
| Cc1nc(F)ccc1NC(=O)N1CCC(N2CC(CC#N)(n3cc(-c4ncnc5[nH]ccc45)cn3)C2)CC1 [Example 199, 4-{3-(cyanomethyl)-3-[4-(7H-pyrrolo[2,3-d]pyrimidin-4-yl)-1H-pyrazol-1-yl]azetidin-1-yl}-N-(6-fluoro-2-methylpyridin-3-yl)piperidine-1-carboxamide] | 10.0 | ≤ 5 | 10 to 50 |
| COCCN(C)Cc1cc(C(=O)N2CCC(N3CC(CC#N)(n4cc(-c5ncnc6[nH]ccc56)cn4)C3)CC2)nc(C(F)(F)F)n1 [Example 384, {1-(1-{[6-{[(2-methoxyethyl)(methyl)amino]methyl}-2-(trifluoromethyl)pyrimidin-4-yl]carbonyl}piperidin-4-yl)-3-[4-(7H-pyrrolo[2,3-d]pyrimidin-4-yl)-1H-pyrazol-1-yl]azetidin-3-yl}acetonitrile] | 29.6 | ≤ 5 | 50 to 100 |
| COc1cc(C(=O)N2CCC(N3CC(CC#N)(n4cc(-c5ncnc6[nH]ccc56)cn4)C3)CC2)cc(Cl)n1 [Example 37, {1-[1-(2-chloro-6-methoxyisonicotinoyl)piperidin-4-yl]-3-[4-(7H-pyrrolo[2,3-d]pyrimidin-4-yl)-1H-pyrazol-1-yl]azetidin-3-yl}acetonitrile] | 2.1 | ≤ 5 | ≤ 10 |
| N#CCC1(n2cc(-c3ncnc4[nH]ccc34)cn2)CN(C2CCN(C(=O)c3cc4cccc(C(F)(F)F)c4s3)CC2)C1 [Example 95, [3-[4-(7H-pyrrolo[2,3-d]pyrimidin-4-yl)-1H-pyrazol-1-yl]-1-(1-{[7-(trifluoromethyl)-1-benzothien-2-yl]carbonyl}piperidin-4-yl)azetidin-3-yl]acetonitrile] | 2.7 | ≤ 5 | ≤ 10 |
| COc1ccc(C(=O)N2CCC(N3CC(CC#N)(n4cc(-c5ncnc6[nH]ccc56)cn4)C3)CC2)cc1C#N [Example 55, 5-[(4-{3-(cyanomethyl)-3-[4-(7H-pyrrolo[2,3-d]pyrimidin-4-yl)-1H-pyrazol-1-yl]azetidin-1-yl}piperidin-1-yl)carbonyl]-2-methoxybenzonitrile] | 7.5 | ≤ 5 | 10 to 50 |
| COc1ccccc1NC(=O)N1CCC(N2CC(CC#N)(n3ccc(-c4ncnc5[nH]ccc45)c3)C2)CC1 [Example 288, 4-{3-(cyanomethyl)-3-[3-(7H-pyrrolo[2,3-d]pyrimidin-4-yl)-1H-pyrrol-1-yl]azetidin-1-yl}-N-(2-methoxyphenyl)piperidine-1-carboxamide] | 9.0 | ≤ 5 | ≤ 10 |
| N#CCC1(n2cc(-c3ncnc4[nH]ccc34)cn2)CN(C2CCN(C(=O)c3cncc(C(F)(F)F)n3)CC2)C1 [Example 86, [3-[4-(7H-pyrrolo[2,3-d]pyrimidin-4-yl)-1H-pyrazol-1-yl]-1-(1-{[6-(trifluoromethyl)pyrazin-2-yl]carbonyl}piperidin-4-yl)azetidin-3-yl]acetonitrile] | 19.4 | ≤ 5 | 50 to 100 |
| N#CCC1(n2cc(-c3ncnc4[nH]ccc34)cn2)CN(C2CCN(C(=O)c3c(F)ccc(F)c3F)CC2)C1 [Example 47, {3-[4-(7H-pyrrolo[2,3-d]pyrimidin-4-yl)-1H-pyrazol-1-yl]-1-[1-(2,3,6-trifluorobenzoyl)piperidin-4-yl]azetidin-3-yl}acetonitrile] | 3.7 | ≤ 5 | ≤ 10 |

Second part, the compound after the results:

| IC50 Ratio JAK2/JAK1 [1] | IC50 [2] [nM] | IC50 (Jak2 (a.a. 828-1132)) [nM] | SMILES |
| --- | --- | --- | --- |
| 20.3 | ≤ 5 | 50 to 100 | N#CCC1(n2ccc(-c3ncnc4[nH]ccc34)c2)CN(C2CCN(C(=O)Nc3cnccc3C(F)(F)F)CC2)C1 [Example 291, 4-{3-(cyanomethyl)-3-[3-(7H-pyrrolo[2,3-d]pyrimidin-4-yl)-1H-pyrrol-1-yl]azetidin-1-yl}-N-[4-(trifluoromethyl)pyridin-3-yl]piperidine-1-carboxamide] |
| 5.3 | ≤ 5 | ≤ 10 | N#CCC1(n2cc(-c3ncnc4[nH]ccc34)cn2)CN(C2CCN(C(=O)c3ccc(C(F)(F)F)cc3F)CC2)C1 [Example 82, {1-{1-[2-fluoro-4-(trifluoromethyl)benzoyl]piperidin-4-yl}-3-[4-(7H-pyrrolo[2,3-d]pyrimidin-4-yl)-1H-pyrazol-1-yl]azetidin-3-yl}acetonitrile] |
| 3.1 | 5 to 20 | 10 to 50 | N#CCC1(n2ccc(-c3ncnc4[nH]ccc34)c2)CN(C2CCN(C(=O)c3ccc(F)c(C(F)(F)F)c3)CC2)C1 [Example 275, {1-{1-[4-fluoro-3-(trifluoromethyl)benzoyl]piperidin-4-yl}-3-[3-(7H-pyrrolo[2,3-d]pyrimidin-4-yl)-1H-pyrrol-1-yl]azetidin-3-yl}acetonitrile] |
| 5.7 | 5 to 20 | 10 to 50 | Cc1nc(C(F)(F)F)ccc1NC(=O)N1CCC(N2CC(CC#N)(n3ccc(-c4ncnc5[nH]ccc45)c3)C2)CC1 [Example 285, 4-{3-(cyanomethyl)-3-[3-(7H-pyrrolo[2,3-d]pyrimidin-4-yl)-1H-pyrrol-1-yl]azetidin-1-yl}-N-[2-methyl-6-(trifluoromethyl)pyridin-3-yl]piperidine-1-carboxamide] |
| 5.9 | ≤ 5 | 10 to 50 | N#CCC1(n2ccc(-c3ncnc4[nH]ccc34)c2)CN(C2CCN(C(=O)c3nc(C(F)(F)F)cs3)CC2)C1 [Example 346, [3-[3-(7H-Pyrrolo[2,3-d]pyrimidin-4-yl)-1H-pyrrol-1-yl]-1-(1-{[4-(trifluoromethyl)-1,3-thiazol-2-yl]carbonyl}piperidin-4-yl)azetidin-3-yl]acetonitrile] |
